# Patent publication US20230203059A1, “MACROCYCLIC JAK INHIBITOR AND USES THEREOF” (Biopolar Hongye (Guangdong) Pharmaceutical Co. Ltd., priority 2020, published 2023)
# Legend:
# Format in all cases: biochemical
# [1] = molecular target: TYK2 (Homo sapiens, UniProt P29597); assay: JAK kinase activity, homogeneous time-resolved fluorescence (TYK2 reaction system); conditions: ATP 2 μM, TYK2 protein 0.2 ng/μL; read-out: TYK 2 activity
# Method: (§1) The activity measurement method of JAK kinase was to use homogeneous time-resolved fluorescence technique. The reaction was performed in 384 shallow well plates with a total reaction volume of 10 μL. The mixture of kinase protein, compound, ATP and substrate was carried out in a reaction buffer of 50 mM Hepes (pH7.0), NaN3 0.02%, BSA 0.01%, 0.1 mM Orthocanadate, 5 mM MgCl2, and 1 mM DTT. After reacting for 1 hour, an antibody capable of recognizing substrate phosphorylation, dye XL-615 and detection buffer (Cisbio) containing EDTA were added to the system. The reaction signal of kinase was detected by PE company's porous plate detector. The parameter settings were excitation light at 320 nm, emission light at 615 nm and 665 nm. The activity of JAK is indirectly reflected by the signal ratio of 665 nm and 615 nm. In the reaction, the background well without enzyme and the total enzyme activity well without compound were set.
# (§2) The IC50 value of the compound inhibiting protein was obtained by the formula: Y=100/(1+10^((Log IC50−X)*HillSlope)). In JAK1 reaction system, the concentration of ATP was 2 μM, and the concentration of JAK1 protein was 0.2 ng/μL.
# In TYK2 reaction system, the concentration of ATP was 2 μM, and the concentration of TYK2 protein was 0.2 ng/μL.
# [2] = molecular target: T1, JAK3 (Homo sapiens, UniProt P52333); assay: JAK kinase activity, homogeneous time-resolved fluorescence (JAK3 reaction system); conditions: ATP 2 μM, JAK3 protein 0.04 ng/μL; read-out: JAK 3 activity
# T1 sequence (P52333 1-1124): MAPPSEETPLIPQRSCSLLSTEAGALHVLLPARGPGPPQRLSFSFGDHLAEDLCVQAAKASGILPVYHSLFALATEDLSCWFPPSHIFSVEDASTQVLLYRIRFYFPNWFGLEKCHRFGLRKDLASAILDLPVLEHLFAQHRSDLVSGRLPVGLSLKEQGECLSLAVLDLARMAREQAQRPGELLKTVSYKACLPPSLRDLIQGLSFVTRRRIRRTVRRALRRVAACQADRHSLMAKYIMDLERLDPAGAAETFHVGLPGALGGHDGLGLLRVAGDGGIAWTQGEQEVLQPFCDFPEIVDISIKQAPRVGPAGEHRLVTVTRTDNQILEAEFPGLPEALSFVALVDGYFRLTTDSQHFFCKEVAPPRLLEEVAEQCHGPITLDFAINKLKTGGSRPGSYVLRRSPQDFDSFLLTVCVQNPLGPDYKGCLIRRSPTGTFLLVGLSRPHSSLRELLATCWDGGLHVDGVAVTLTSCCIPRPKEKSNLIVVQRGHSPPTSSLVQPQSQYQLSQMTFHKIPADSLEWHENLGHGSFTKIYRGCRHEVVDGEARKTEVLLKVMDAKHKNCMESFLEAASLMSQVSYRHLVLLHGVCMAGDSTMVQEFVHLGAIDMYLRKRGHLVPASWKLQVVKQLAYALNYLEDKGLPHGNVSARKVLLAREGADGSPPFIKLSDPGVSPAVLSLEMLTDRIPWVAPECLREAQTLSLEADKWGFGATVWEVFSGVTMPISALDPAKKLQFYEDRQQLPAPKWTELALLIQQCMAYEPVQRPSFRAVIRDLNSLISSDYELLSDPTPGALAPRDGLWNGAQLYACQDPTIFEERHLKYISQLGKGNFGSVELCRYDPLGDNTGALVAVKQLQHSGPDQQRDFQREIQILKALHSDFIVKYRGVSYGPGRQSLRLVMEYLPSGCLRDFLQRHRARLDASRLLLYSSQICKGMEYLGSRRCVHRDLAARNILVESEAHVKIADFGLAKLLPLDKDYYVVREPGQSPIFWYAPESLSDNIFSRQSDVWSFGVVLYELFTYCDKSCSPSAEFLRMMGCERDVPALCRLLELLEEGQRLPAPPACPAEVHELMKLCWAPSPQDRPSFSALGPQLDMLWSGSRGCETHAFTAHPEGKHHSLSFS
# Method: as §1, with “The reaction was performed in 384 shallow well plates with a total reaction volume of 10 μL.” left out, “After reacting for 1 hour, an antibody capable of recognizing substrate phosphorylation, dye XL-615 and detection buffer (Cisbio) containing EDTA were added to the system.” left out, “set. […]” for “set.”
# In JAK3 reaction system, the concentration of ATP was 2 μM, and the concentration of JAK3 protein was 0.04 ng/μL.
# [3] = molecular target: JAK2 (Homo sapiens, UniProt O60674); assay: JAK kinase activity, homogeneous time-resolved fluorescence (JAK2 reaction system); conditions: ATP 2 μM, JAK2 protein 0.01 ng/μL
# JAK2, sequence (O60674 whole entry): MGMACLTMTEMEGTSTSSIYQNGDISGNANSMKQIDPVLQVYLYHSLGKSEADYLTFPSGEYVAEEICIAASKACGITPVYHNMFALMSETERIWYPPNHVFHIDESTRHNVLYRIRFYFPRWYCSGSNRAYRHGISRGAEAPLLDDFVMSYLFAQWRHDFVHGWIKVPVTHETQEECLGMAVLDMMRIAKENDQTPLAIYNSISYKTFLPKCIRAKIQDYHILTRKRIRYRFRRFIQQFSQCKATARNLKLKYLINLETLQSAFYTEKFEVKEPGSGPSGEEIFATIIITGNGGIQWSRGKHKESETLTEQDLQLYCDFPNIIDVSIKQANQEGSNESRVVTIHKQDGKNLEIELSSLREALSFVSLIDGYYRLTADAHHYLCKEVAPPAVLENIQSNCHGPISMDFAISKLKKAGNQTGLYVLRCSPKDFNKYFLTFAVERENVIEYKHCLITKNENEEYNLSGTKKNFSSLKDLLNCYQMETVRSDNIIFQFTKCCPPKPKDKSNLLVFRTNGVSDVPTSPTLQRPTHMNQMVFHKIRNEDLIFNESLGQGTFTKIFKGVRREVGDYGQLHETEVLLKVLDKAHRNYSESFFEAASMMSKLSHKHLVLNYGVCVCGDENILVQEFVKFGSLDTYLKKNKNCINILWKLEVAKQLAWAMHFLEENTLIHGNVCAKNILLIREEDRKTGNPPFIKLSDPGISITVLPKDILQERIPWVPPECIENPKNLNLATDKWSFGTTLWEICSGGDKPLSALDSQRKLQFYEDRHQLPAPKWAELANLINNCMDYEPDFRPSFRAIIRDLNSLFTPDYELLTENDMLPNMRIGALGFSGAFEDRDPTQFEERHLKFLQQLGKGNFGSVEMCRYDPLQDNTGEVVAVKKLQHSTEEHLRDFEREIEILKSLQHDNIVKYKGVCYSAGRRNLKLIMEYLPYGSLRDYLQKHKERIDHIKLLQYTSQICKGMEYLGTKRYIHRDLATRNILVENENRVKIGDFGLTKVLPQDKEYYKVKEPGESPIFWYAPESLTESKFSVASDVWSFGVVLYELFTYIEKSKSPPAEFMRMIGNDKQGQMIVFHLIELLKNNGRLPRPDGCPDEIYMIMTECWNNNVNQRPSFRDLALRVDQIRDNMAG
# Method: as §1, §2
# In JAK2 reaction system, the concentration of ATP was 2 μM, and the concentration of JAK2 protein was 0.01 ng/μL.
# [4] = molecular target: JAK1 (Homo sapiens, UniProt P23458); assay: JAK kinase activity, homogeneous time-resolved fluorescence (JAK1 reaction system); conditions: ATP 2 μM, JAK1 protein 0.2 ng/μL; read-out: JAK 1 activity
# JAK1, sequence (P23458 whole entry): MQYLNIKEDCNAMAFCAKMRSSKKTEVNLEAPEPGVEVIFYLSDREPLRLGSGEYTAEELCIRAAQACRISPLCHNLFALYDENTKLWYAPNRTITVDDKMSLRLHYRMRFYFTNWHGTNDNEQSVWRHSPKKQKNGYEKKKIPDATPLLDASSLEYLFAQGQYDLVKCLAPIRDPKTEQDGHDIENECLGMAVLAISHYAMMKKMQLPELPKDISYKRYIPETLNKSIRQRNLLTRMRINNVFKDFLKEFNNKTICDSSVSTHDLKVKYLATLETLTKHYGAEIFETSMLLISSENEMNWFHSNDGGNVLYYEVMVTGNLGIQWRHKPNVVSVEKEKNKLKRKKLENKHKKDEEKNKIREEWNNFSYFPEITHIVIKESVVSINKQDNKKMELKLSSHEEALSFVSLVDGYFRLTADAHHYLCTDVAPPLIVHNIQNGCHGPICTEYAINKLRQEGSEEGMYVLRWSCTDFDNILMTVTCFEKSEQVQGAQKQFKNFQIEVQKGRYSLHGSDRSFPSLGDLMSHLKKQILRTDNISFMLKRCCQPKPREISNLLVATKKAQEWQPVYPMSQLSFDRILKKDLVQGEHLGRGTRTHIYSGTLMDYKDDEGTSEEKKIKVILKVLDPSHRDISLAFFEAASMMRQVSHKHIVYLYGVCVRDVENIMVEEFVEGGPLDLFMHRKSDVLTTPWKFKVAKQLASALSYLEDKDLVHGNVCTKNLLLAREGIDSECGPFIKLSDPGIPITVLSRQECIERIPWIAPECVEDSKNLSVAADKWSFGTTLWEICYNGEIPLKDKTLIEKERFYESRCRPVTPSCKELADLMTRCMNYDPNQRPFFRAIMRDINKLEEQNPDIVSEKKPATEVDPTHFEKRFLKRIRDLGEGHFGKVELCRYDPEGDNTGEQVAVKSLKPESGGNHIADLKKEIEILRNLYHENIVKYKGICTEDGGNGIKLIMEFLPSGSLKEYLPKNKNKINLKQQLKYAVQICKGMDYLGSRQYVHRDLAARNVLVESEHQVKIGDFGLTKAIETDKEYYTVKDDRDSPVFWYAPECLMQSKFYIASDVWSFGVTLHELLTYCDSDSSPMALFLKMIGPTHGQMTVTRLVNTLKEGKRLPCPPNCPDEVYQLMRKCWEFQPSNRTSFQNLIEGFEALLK
# Method: as §1, §2
# TYK2, sequence (P29597 whole entry): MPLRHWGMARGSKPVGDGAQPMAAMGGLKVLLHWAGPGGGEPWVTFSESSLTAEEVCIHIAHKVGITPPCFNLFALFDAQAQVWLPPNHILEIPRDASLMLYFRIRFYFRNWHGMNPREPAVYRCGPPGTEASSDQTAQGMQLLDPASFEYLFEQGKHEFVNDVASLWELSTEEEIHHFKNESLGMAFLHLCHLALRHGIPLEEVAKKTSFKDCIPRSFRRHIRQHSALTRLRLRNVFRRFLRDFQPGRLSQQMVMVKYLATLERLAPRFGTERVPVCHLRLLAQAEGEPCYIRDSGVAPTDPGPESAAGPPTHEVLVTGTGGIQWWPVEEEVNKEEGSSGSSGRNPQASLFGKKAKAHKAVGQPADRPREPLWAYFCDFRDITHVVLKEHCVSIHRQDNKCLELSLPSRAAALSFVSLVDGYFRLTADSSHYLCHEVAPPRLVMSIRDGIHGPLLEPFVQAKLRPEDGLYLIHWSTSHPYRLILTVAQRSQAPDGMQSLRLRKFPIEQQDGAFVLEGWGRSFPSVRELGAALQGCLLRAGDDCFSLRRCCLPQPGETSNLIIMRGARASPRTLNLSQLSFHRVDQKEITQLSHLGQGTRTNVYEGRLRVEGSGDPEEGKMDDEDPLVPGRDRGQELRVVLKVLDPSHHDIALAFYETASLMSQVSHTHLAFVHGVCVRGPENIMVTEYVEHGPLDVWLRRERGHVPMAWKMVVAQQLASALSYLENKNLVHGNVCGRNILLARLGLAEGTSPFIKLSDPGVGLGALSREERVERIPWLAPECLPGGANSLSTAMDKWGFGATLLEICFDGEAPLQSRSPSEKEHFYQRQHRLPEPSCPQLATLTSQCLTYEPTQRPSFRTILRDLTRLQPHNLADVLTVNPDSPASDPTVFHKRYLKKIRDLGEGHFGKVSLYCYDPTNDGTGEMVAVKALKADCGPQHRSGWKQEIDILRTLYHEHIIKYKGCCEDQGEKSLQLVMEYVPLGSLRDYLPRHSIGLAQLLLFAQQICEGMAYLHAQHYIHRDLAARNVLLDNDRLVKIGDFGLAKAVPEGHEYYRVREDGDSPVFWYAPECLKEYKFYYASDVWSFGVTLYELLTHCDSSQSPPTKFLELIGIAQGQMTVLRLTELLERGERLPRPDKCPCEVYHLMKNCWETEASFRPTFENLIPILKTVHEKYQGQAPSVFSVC
Compound,IC50 [1],IC50 [2],IC50 [3],IC50 [4]
"O=C1NCCCCOCc2cc(ccc2N2CCOCC2)Nc2nccc(n2)-c2ccc1c(F)c2 [Example 10, 1^3-fluoro-4^4-morpholin-6-oxa-3,11-diaza-2(4,2)-pyrimidina-1(1,4),4(1,3)-dibenzenacyclododecaphan-12-one]",0.011 to 0.1 µM,< 0.01 µM,< 0.01 µM,0.011 to 0.1 µM
"N#Cc1cnc2nc1-c1ccc(cc1)C(=O)NCCCCOCc1cc(ccc1N1CCOCC1)N2 [Example 11, 2^5-cyano-4^4-morpholin-6-oxa-3,11-diaza-2(4,2)-pyrimidina-1(1,4),4(1,3)-dibenzenacyclododecaphan-12-one]",1 to 10 µM,0.101 to 1 µM,0.101 to 1 µM,1 to 10 µM
"O=C1NCCCOCc2cc(ccc2N2CCOCC2)Nc2nccc(n2)-c2ccc1cc2 [Example 13, 4^4-morpholin-6-oxa-3,11-diaza-2(4,2)-pyrimidina-1(1,4),4(1,3)-dibenzena-cycloundecaphan-11-one]",> 10 µM,> 10 µM,> 10 µM,> 10 µM
"O=C1NCCCCOCc2cc(ccc2N2CCOCC2)Nc2ncc(Cl)c(n2)-c2ccc1cc2F [Example 14, 2^5-chloro-1^2-fluoro-4^4-morpholin-6-oxa-3,11-diaza-2(4,2)-pyrimidina-1-(1,4),4(1,3)-dibenzenacyclododeca-phan-12-one]",0.101 to 1 µM,0.011 to 0.1 µM,0.011 to 0.1 µM,0.101 to 1 µM
"COc1ccc2cc1COCCCCNC(=O)c1ccc(c(F)c1)-c1ccnc(n1)N2 [Example 15, 1^2-fluoro-4^4-methoxy-6-oxa-3,11-di-aza-2(4,2)-pyrimidina-1(1,4),4(1,3)-dibenzenacyclododecaphan-12-one]",1 to 10 µM,0.011 to 0.1 µM,0.101 to 1 µM,0.101 to 1 µM
"O=C1NCCCCOCc2cc(ccc2N2CCOCC2)Nc2ncc(Cl)c(n2)-c2ccc1cc2Cl [Example 17, 1^2,2^5-dichloro-4^4-morpholin-6-oxa-3,11-diaza-2(4,2)-pyrimidina-1(1,4),4(1,3)-dibenzenacyclododecaphan-12-one]",1 to 10 µM,0.101 to 1 µM,0.101 to 1 µM,1 to 10 µM
"O=C1NCCCCOCc2cc(ccc2N2CCOCC2)Nc2nccc(n2)-c2ccc1cc2C(F)(F)F [Example 19, 4^4-morpholin-1^2-trifluoromethyl-6-oxa-3,11-diaza-2(4,2)-pyrimi-dina-1(1,4),4(1,3)-dibenzenacyclododecaphan-12-one]",> 10 µM,1 to 10 µM,1 to 10 µM,1 to 10 µM
"O=C1NCCCCOCc2cc(ccc2Cl)Nc2nccc(n2)-c2ccc1cc2F [Example 20, 4^4-chloro-1^2-fluoro-6-oxa-3,11-diaza-2(4,2)-pyrimidina-1(1,4),4(1,3)-di-benzenacyclododecaphan-12-one]",1 to 10 µM,0.011 to 0.1 µM,0.101 to 1 µM,0.101 to 1 µM
"O=C1NCCCCOCc2cc(ccc2N2CCOCC2)Nc2nccc(n2)-c2ccc1cc2OC(F)(F)F [Example 22, 4^4-morpholin-1^2-trifluoromethoxy-6-oxa-3,11-diaza-2(4,2)-pyrimidina-1(1,4),4(1,3)-dibenzenacyclododeca-phan-12-one]",1 to 10 µM,0.101 to 1 µM,0.101 to 1 µM,1 to 10 µM
"O=C1NCCCCOCc2cc(ccc2N2CCOCC2)Nc2nccc(n2)-c2ccc1cc2[N+](=O)[O-] [Example 24, 1^2-nitro-4^4-morpholin-6-oxa-3,11-di-aza-2(4,2)-pyrimidina-1(1,4),4(1,3)-dibenzenacyclododecaphan-12-one]",1 to 10 µM,0.101 to 1 µM,1 to 10 µM,1 to 10 µM
O=C1NCCCCOCc2cc(cc(N3CCOCC3)c2)Nc2ncc(Cl)c(n2)-c2ccc1cc2F [Example 25],1 to 10 µM,0.101 to 1 µM,1 to 10 µM,1 to 10 µM
"O=C1NCCCCOCc2cc(cc(N3CCOCC3)c2)Nc2nccc(n2)-c2ccc1cc2F [Example 27, 1^2-fluoro-4^5-morpholin-6-oxa-3,11-diaza-2(4,2)-pyrimidina-1(1,4),4(1,3)-dibenzenacyclododecaphan-12-one]",0.101 to 1 µM,0.011 to 0.1 µM,0.011 to 0.1 µM,0.101 to 1 µM

# Results, then the compound that gave them:
IC50 [1],IC50 [2],IC50 [3],IC50 [4],Compound
1 to 10 µM,0.011 to 0.1 µM,0.101 to 1 µM,0.101 to 1 µM,"O=C1NCCCCOCc2cccc(c2)Nc2nccc(n2)-c2ccc1cc2F [Example 12, 1^2-fluoro-6-oxa-3,11-diaza-2(4,2)-py-rimidina-1(1,4),4(1,3)-dibenzenacy-clododecaphan-12-one]"
1 to 10 µM,0.011 to 0.1 µM,0.011 to 0.1 µM,0.011 to 0.1 µM,"O=C1NCCCCOCc2cc(cc(N3CCOCC3)c2)Nc2ncc(Cl)c(n2)-c2ccc1cc2 [Example 16, 2^5-chloro-4^5-morpholin-6-oxa-3,11-diaza-2(4,2)-pyrimidina-1(1,4),4(1,3)-dibenzenacyclododecaphan-12-one]"
> 10 µM,0.101 to 1 µM,0.101 to 1 µM,1 to 10 µM,"O=C1NCCCCOCc2cccc(c2)Nc2ncc(Cl)c(n2)-c2ccc1cc2Cl [Example 18, 1^2,2^5-dichloro-6-oxa-3,11-diaza-2(4,2)-pyrimidina-1(1,4),4(1,3)-dibenz-enacyclododecaphan-12-one]"
1 to 10 µM,0.101 to 1 µM,0.101 to 1 µM,1 to 10 µM,"COc1cc2ccc1-c1ccnc(n1)Nc1ccc(N3CCOCC3)c(c1)COCCCCNC2=O [Example 21, 1^2-methoxy-4^4-morpholin-6-oxa-3,11-diaza-2(4,2)-pyrimidina-1(1,4),4(1,3)-dibenzenacyclododecaphan-12-one]"
1 to 10 µM,0.011 to 0.1 µM,0.101 to 1 µM,1 to 10 µM,"Cc1cc2ccc1-c1ccnc(n1)Nc1ccc(N3CCOCC3)c(c1)COCCCCNC2=O [Example 23, 1^2-methyl-4^4-morpholin-6-oxa-3,11-diaza-2(4,2)-pyrimidina-1(1,4),4(1,3)-dibenzenacyclododecaphan-12-one]"
0.101 to 1 µM,0.011 to 0.1 µM,0.011 to 0.1 µM,0.101 to 1 µM,"COc1cnc2nc1-c1ccc(cc1)C(=O)NCCCCOCc1cc(ccc1N1CCOCC1)N2 [Example 26, 2^5-methoxy-4^4-morpholin-6-oxa-3,11-diaza-2(4,2)-pyrimidina-1(1,4),4(1,3)-dibenzenacyclododecaphan-12-one]"
